Assay results as given in patent US20040082021A1, “Method for assaying compounds or agents for ability to decrease the activity of microsomal prostaglandin E synthase or hematopoietic prostaglandin D synthase” (Aventis Pharmaceuticals Inc., priority 2002, published 2004).

Biological target: T1, human hPGDS (Homo sapiens, UniProt O60760)
T1 construct: made in house; host or cells: E. coli FL21 (DE3) as printed, pT7-7 vector
Assay: Fluorescence polarization assay of hematopoietic prostaglandin D synthase (hPGDS)
Format: biochemical
Conditions: conversion of PGH2 to PGD2, FIG. 8 histogram
Procedure: A fluorescence polarization (FP) assay to measure hPGDS activity has also been developed (FIGS. 3 and 4). The assay is configured based on the fluorescence polarization principle. hPGDS was mixed with PGH2, glutathione, and the compound or agent being evaluated. After a short period of time (about 30 seconds), a stop solution containing FeCl2 (20 mM) was added to quench any remaining PGH2, which would undergo spontaneous conversion to a mixture of PGD2 and PGE2, and thus interfere with the quantification of the enzymatic conversion of PGH2 to PGD2 (FIG. 3). A detection solution containing a fluorescence labeled (Texas Red) tracer (PGD2) and anti-PGD2 antibody was then added in order to generate the specific signal that is inversely proportional to the production of PGD2 (FIG. 4). The PGD2 generated from the enzymatic reaction competed specifically for the antibody and released the fluorescence labeled tracer. For reasons discussed above, a decrease or inhibition of PGD2 synthase activity results in increased fluorescence polarization (FP) value. […]
A control mixture was prepared that was identical to the mixture containing the enzyme, wherein the control mixture was treated in a manner identical the mixture containing the enzyme, i.e., same incubation durations, etc. […] The fluorescence polarization measurement was made while the measuring instrument is in FP mode. […]

T1 sequence (O60760 whole entry): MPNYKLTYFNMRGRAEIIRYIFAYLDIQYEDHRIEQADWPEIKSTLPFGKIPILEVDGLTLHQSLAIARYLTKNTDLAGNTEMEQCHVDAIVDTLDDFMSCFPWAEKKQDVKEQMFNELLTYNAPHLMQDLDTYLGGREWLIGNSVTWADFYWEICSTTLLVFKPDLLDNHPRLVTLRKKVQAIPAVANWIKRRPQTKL

Compound: c1ccc(C(OC2CCN(CCCc3nn[nH]n3)CC2)c2ccccc2)cc1 [HQL 79]
- decrease in activity of hPGDS detected by FP method: decreases the activity of hPGDS
